Results reported in article PMC6158189, “A pharmacological probe identifies cystathionine β-synthase as a new negative regulator for ferroptosis” (Cell Death & Disease, 2018).

Columns and labels:
[1] = molecular target: T1, endogenous hCBS in HepG2 cells (Homo sapiens, UniProt P35520); test: endogenous H2S in HepG2 cells (AzMC probe); format: cell-based; settings: 8 h, HepG2
T1 construct: effects of CH004 on the activity of endogenous CBS by incubating with HepG2; endogenous in cells; host or cells: HepG2
T1 sequence (P35520 1-551): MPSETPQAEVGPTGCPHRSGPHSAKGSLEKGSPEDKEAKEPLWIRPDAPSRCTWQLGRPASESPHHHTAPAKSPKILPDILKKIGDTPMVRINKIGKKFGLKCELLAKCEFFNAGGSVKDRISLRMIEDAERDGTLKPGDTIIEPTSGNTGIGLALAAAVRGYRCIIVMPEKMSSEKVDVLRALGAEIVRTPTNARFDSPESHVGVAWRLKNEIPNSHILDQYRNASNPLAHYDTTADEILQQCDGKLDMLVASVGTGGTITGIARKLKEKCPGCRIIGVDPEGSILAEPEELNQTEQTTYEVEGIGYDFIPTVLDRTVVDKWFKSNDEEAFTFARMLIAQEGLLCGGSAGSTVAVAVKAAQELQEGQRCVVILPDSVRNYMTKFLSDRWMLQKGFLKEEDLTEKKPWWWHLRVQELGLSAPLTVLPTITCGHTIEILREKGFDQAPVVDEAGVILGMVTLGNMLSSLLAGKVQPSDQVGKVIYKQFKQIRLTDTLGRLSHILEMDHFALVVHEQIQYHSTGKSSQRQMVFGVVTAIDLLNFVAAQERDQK
Procedure: Fig. 3 The effect of CH004 on the activity of endogenous hCBS in cells. a CH004 dose-dependently elevates the levels of Hcys in HepG2 and HEK293T cells. HepG2 cells or HEK293T cells were incubated with indicated CH004 or DMSO (control) for 12 h. The amount of total Hcys in cells was measured by ELISA using Axis® Homocysteine EIA kit (IBL, AX51301) (“Materials and Methods” section). […] HepG2 cells were treated with indicated DMSO, CH004 or HA for 8 h before the staining with AzMC probe. The amount of the H2S (blue) was quantified and is shown in (c). Bars, 50 μm. Control (CTR), DMSO group (100%). A representative fluorescence image from three independent experiments is shown. Means ± SDS (n = 3). d CH004 elevates Hcys in the peripheral blood of rats. The total Hcys of the blood samples collected from the anesthetized rats at the 75 min time point (Materials and Methods) were quantified by ELISA (see above). Means ± SDS (n = 6).
(§1) H2S levels in living cells were detected using a H2S-specific fluorescent probe according to a protocol described previously[31],[55]. To measure H2S in transiently transfected HEK293T cells, the cells were seeded on poly-D-Lys-coated coverslips (Thermo Scientific, Waltham, MA, USA) in 12-well plates at a density of ~ 1 × 10^5 cells per well, and hCBS or hCSE plasmids were transiently transfected by X-tremeGENE HP DNA Transfection Reagent according to the manufacturer’s protocol (Roche, Basel, Switzerland). After 24 h, the transfected cells were treated with DMSO or inhibitors for another 8 h, followed by staining with 7-azide-4-methylcoumarin (AzMC; Sigma-Aldrich). Similarly, HEK293T cells stably expressing CBS WT, Q222A mutant or EV were seeded on poly-D-Lys-coated coverslips in 12-well plates for one day before treatment with DMSO or inhibitors for 8 h. After incubation with 50 μM AzMC at 37 °C for 30 min, the cells were washed 4 times with PBS, and the fluorescent images were recorded with excitation by 405 nm laser by using a A1Si (Nikon) confocal microscope. The intensity of the blue fluorescent signals, indicating the amount of H2S, was quantified by ImageJ software (NIH, Bethesda, ML). The H2S signal was then corrected for the background signal detected in HEK293T cells transiently or stably expressing of empty vector (HEK293T-EV) and normalized by the corresponding cell-occupying area and compared with the control (DMSO group, 100%). Similarly, the H2S signal in HepG2 cells was quantified by AzMC staining, corrected for the background signal outside the cells, normalized by the cell area and expressed as percentages of DMSO control (100%).
To elucidate the subcellular localization of H2S, HepG2 cells were seeded on poly-D-Lys-coated coverslips in 12-well plates. After treatment with DMSO or inhibitors for 8 h, cells were sequentially incubated with 200 nM Mito-Tracker® Green and 50 μM AzMC for 30 min at 37 °C in PBS, and then fluorescent images were taken using a confocal microscope.
Figure S9. The effect of AOAA on the level of endogenous H2S in HepG2 cells. […] HepG2 cells were incubated with 0 (DMSO control), 1, 5 or 10 mM AOAA for 8 h before staining with 50 μM AzMC. Upper panels, the overlaid images; middle panels, the corresponding fluorescent images (blue, H2S); the lower panels, the bright-field images. Bars: 50 μm. (B) Quantification of the mean fluorescent density of H2S (blue). The intensity of H2S was accordingly quantified and normalized by correcting for the background signal outside cells. Data was expressed as percentages of the control (DMSO group, 100%). Means ± SDs (n=3). One-way ANOVA with Bonferroni post-tests was used for the analysis. *, p< 0.05; ***, p< 0.001; n.s. no significance. The images are one representative from three independent experiments.

[2] = molecular target: T2, hCBS-FL wild type (293T-CBS WT) (Homo sapiens, UniProt P35520); test: H2S in HEK293T cells stably expressing hCBS WT (AzMC probe); format: cell-based; settings: 8 h
T2 construct: human CBS or hCSE full-length (CBS-FL or CSE) was subcloned into pGEX-KG, pcDNA3 or pCDH vector; expressed in transfected cells
T2 sequence (P35520 1-551): T1 sequence (P35520 1-551)
Procedure: HEK293T cells were transiently transfected with empty vector (EV, i and ii), hCBS-FL (iii and iv) or hCSE (v and vi) plasmids, followed by incubation with DMSO (i–iii and v) or 10 μM CH004 (iv and vi) for 8 h before staining with 50 μM AzMC, a H2S-specific probe (“Materials and Methods” section). For larger fluorescent and bright-field images, please see Supplementary Figure 4. The expression levels of hCBS or hCSE in HEK293T cells after transient transfections were determined by western blotting using an anti-CBS antibody (3E1, 1:2000; Abnova) or anti-CSE antibody (1:500, GeneTex). The densities of protein bands for hCBS or hCSE in the blots were quantified with the ImageJ software (National Institutes of Health, Bethesda, MD, USA) and expressed as ratios of respective control (EV group). All immunoblots are representative of at least two independent experiments using GAPDH as the loading control. The fluorescent images of the H2S (blue) were accordingly quantified (“Materials and Methods” section) with ImageJ. […] The DMSO groups of the controls (CTR), which are expressing of hCBS or hCSE, were normalized to 100% and the levels of H2S in CH004-treated or EV group are shown as relative percentages. c, d CH004 dose-dependently suppresses the activity of hCBS WT without affecting the activity of CH004-insensitive mutant. HEK293T cells stably expressing EV (i and ii), hCBS-FL wild type (293T-CBS WT; iii–v) or CBS-FL mutant (293T-CBS Q222A, vi–viii) were treated with DMSO (i–iii and vi), 5 μM CH004 (iv, vii) or 10 μM CH004 (v, viii) for 8 h before staining with the AzMC. For larger fluorescent and bright-field images, please see Supplementary Figures 5–6. […] The DMSO groups of the controls (CTR), which are expressing of hCBS-FL wt or Q222A mutant, were normalized to 100% and the levels of H2S in CH004-treated or EV group are shown as relative percentages. A representative fluorescence image from three independent experiments is shown. Means ± SDS (n = 3). Statistical analyses were performed on the raw data for each group by one-way (b) or two-way (d) ANOVA with Bonferroni post-tests. ***p < 0.001. Bars, 50 μm
as §1, with “After 24 h, the transfected cells were treated with DMSO or inhibitors for another 8 h, followed by staining with 7-azide-4-methylcoumarin (AzMC; Sigma-Aldrich). Similarly, HEK293T cells stably expressing CBS WT, Q222A mutant or EV were seeded on poly-D-Lys-coated coverslips in 12-well plates for one day before treatment with DMSO or inhibitors for 8 h.” left out, “(100%). […]” for “(100%).”

[3] = system: H22 mouse liver tumor cells in ICR mice; settings: 20 mg/kg/day i.v.
Procedure: Fig. 7 CH004 suppresses tumor growth in vivo. a–c CH004 reduces the growth rate of tumors in liver tumor xenograft mice model. Mice bearing liver tumor xenografts were treated with CH004 (10 mg/kg/d), cyclophophamide (CTX, 20 mg/kg/d) or PBS (Vehicle) for 21 days. The tumor volumes were measured every two days during day 6 to day 22 and the data was presented in a (n = 8). […] Mice body weight was measured along with the measurement of tumor volume (n = 8). Means ± SDS. Statistical analyses were performed on the raw data by one-way (c) or two-way ANOVA (a) with Bonferroni post-tests. The significance of the CH004-treated group compared to Vehicle was indicated with $ (a), whereas the comparison of the CTX group to Vehicle was with # (a). $, # or ***p < 0.001
The in vivo effect of CH004 on tumor growth was evaluated in a xenograft mice model of liver cancer. The experiment was independently performed by Jiangsu KeyGEN BioTECH Co. LTD (Jiangsu, China) and followed the standard procedures that were established and approved by the local Animal Care and Use Committee. Briefly, H22 mouse liver tumor cells were intraperitoneal injected into female ICR mice (SLAC Laboratory Animal Co. Ltd, Shanghai, China). 8 days later, mice with distended abdomen were killed, and the ascites was collected, washed and resuspended with PBS. 0.1 ml cell suspension with a density of 1 × 10^7/ml was subcutaneously injected into the right dorsum of ICR female mice (~20 g). The mice bearing H22 tumor cells were then randomized into groups (n = 8) on the following day after the implantation. Then, the mice were injected via a tail vein (i.v.) with PBS, CH004 (10 mg/kg) or cyclophosphamide (CTX, a known anticancer drug; 20 mg/kg) once per day and for 21 days. Tumor sizes were measured every 2 days starting from the day 6 using a caliper, and tumor volume was calculated using the formula V = length × width^2 × π / 6. The body weights of mice were recorded under the same conditions. The mice were sacrificed on day 22, and the tumors were taken out and weighted.

SMILES	effect on production of H2S ([1]; 1 mM)	decrease in cellular H2S ([1]; 10 mM)	production of endogenous H2S ([1]; 1, 5 or 10 mM)	effect on production of H2S ([2]; 1 mM, HEK293T stably expressing hCBS)	decrease in cellular H2S ([2]; 10 mM, HEK293T stably expressing hCBS)	H2S production ([2]; 1, 5 or 10 mM, 293T-CBS WT)	reduction of tumor volume or weight ([3]; 21-day treatment)	effect on total body weight ([3]; 21 days)
NOCC(=O)O [AOAA, aminooxyacetic acid, reference compound]	cannot suppress	≤ 30%	impotently decreases	cannot suppress	≤ 30%	weakly inhibits	–	–
O=P1(N(CCCl)CCCl)NCCCO1 (centres unmarked) [CTX, cyclophosphamide, reference compound]	–	–	–	–	–	–	more than half	did not substantially affect
